Laboratory results reported in PubChem BioAssay AID1963970 (Molecular Pharmacology Branch, DTP, NCI, 2024).

System: 931267-113-T-J1-PDC multicell spheroid viability
Test: Anticancer human tumor 931267-113-T-J1-PDC patient-derived colon adenocarcinoma cell line growth inhibition [PI3K]
Conditions: for IC50: curve of first compound; for viability, T/C: stronger effect = lower value
In short: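 Viability of mixed-cell spheroids was determined after exposure to pairwise combinations, one partner being inavolisib, alpelisib, duvelisib or copanlisib. Highest tested concentration matched clinical Cmax where known and 10 microM where not, descending in half-log steps.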
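Note: viability read 7 days after compound addition.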

Compound CNC(=O)c1ccc(N2C(=S)N(c3ccc(C#N)c(C(F)(F)F)c3)C(=O)C2(C)C)cc1F + CC(Nc1ncnc2nc[nH]c12)c1cc2cccc(Cl)c2c(=O)n1-c1ccccc1 has an IC50 (second compound 0.0316 µM) greater than 10000 nM, an IC50 (second compound 0.1 µM) greater than 10000 nM and an IC50 (second compound 0.316 µM) greater than 10000 nM. The IC50 (second compound 1 µM) was greater than 10000 nM, the IC50 (second compound 3.16 µM) was greater than 10000 nM and the IC50 (second compound 10 µM) was greater than 10000 nM. The viability, T/C (second compound 0.0316 µM, first compound 0.0316 µM) was 107%, the viability, T/C (second compound 0.0316 µM, first compound 0.1 µM) was 96.7% and the viability, T/C (second compound 0.0316 µM, first compound 0.316 µM) was 113%. The viability, T/C (second compound 0.0316 µM, first compound 1 µM) was 97.2%, the viability, T/C (second compound 0.0316 µM, first compound 3.16 µM) was 111% and the viability, T/C (second compound 0.0316 µM, first compound 10 µM) was 109%. The viability, T/C (second compound 0.1 µM, first compound 0.0316 µM) was 108%, the viability, T/C (second compound 0.1 µM, first compound 0.1 µM) was 101% and the viability, T/C (second compound 0.1 µM, first compound 0.316 µM) was 104%. The viability, T/C (second compound 0.1 µM, first compound 1 µM) was 104%, the viability, T/C (second compound 0.1 µM, first compound 3.16 µM) was 101% and the viability, T/C (second compound 0.1 µM, first compound 10 µM) was 103%. The viability, T/C (second compound 0.316 µM, first compound 0.0316 µM) was 103%, the viability, T/C (second compound 0.316 µM, first compound 0.1 µM) was 104% and the viability, T/C (second compound 0.316 µM, first compound 0.316 µM) was 100%. For the same compound, the viability, T/C (second compound 0.316 µM, first compound 1 µM) was 107%, the viability, T/C (second compound 0.316 µM, first compound 3.16 µM) was 115% and the viability, T/C (second compound 0.316 µM, first compound 10 µM) was 103%. The viability, T/C (second compound 1 µM, first compound 0.0316 µM) was 102%, the viability, T/C (second compound 1 µM, first compound 0.1 µM) was 103% and the viability, T/C (second compound 1 µM, first compound 0.316 µM) was 96.6%. It also gave a viability, T/C (second compound 1 µM, first compound 1 µM) of 102%, a viability, T/C (second compound 1 µM, first compound 3.16 µM) of 117% and a viability, T/C (second compound 1 µM, first compound 10 µM) of 109%. It also gave a viability, T/C (second compound 3.16 µM, first compound 0.0316 µM) of 100%, a viability, T/C (second compound 3.16 µM, first compound 0.1 µM) of 98.9% and a viability, T/C (second compound 3.16 µM, first compound 0.316 µM) of 92.4%. It also gave a viability, T/C (second compound 3.16 µM, first compound 1 µM) of 103%, a viability, T/C (second compound 3.16 µM, first compound 3.16 µM) of 96.5% and a viability, T/C (second compound 3.16 µM, first compound 10 µM) of 104%. It also gave a viability, T/C (second compound 10 µM, first compound 0.0316 µM) of 99%, a viability, T/C (second compound 10 µM, first compound 0.1 µM) of 97.9% and a viability, T/C (second compound 10 µM, first compound 0.316 µM) of 93.9%. It also gave a viability, T/C (second compound 10 µM, first compound 1 µM) of 96.1%, a viability, T/C (second compound 10 µM, first compound 3.16 µM) of 102% and a viability, T/C (second compound 10 µM, first compound 10 µM) of 84.4%.

Cn1cnc2c(F)c(Nc3ccc(Br)cc3Cl)c(C(=O)NOCCO)cc21 + CC(Nc1ncnc2nc[nH]c12)c1cc2cccc(Cl)c2c(=O)n1-c1ccccc1 was tested, and the IC50 (second compound 0.0316 µM) was 123 nM, the IC50 (second compound 0.1 µM) was 133 nM and the IC50 (second compound 0.316 µM) was 117 nM. The IC50 (second compound 1 µM) was 107 nM, the IC50 (second compound 3.16 µM) was 96.7 nM and the IC50 (second compound 10 µM) was 61.6 nM. The viability, T/C (second compound 0.0316 µM, first compound 0.00949 µM) was 84%, the viability, T/C (second compound 0.0316 µM, first compound 0.03 µM) was 71.9% and the viability, T/C (second compound 0.0316 µM, first compound 0.0949 µM) was 51.7%. The viability, T/C (second compound 0.0316 µM, first compound 0.3 µM) was 38.4%, the viability, T/C (second compound 0.0316 µM, first compound 0.949 µM) was 23% and the viability, T/C (second compound 0.0316 µM, first compound 3 µM) was 12.8%. For the same compound, the viability, T/C (second compound 0.1 µM, first compound 0.00949 µM) was 89.1%, the viability, T/C (second compound 0.1 µM, first compound 0.03 µM) was 80.1% and the viability, T/C (second compound 0.1 µM, first compound 0.0949 µM) was 55.4%. The viability, T/C (second compound 0.1 µM, first compound 0.3 µM) was 33.1%, the viability, T/C (second compound 0.1 µM, first compound 0.949 µM) was 25.1% and the viability, T/C (second compound 0.1 µM, first compound 3 µM) was 13.6%. The viability, T/C (second compound 0.316 µM, first compound 0.00949 µM) was 92.1%, the viability, T/C (second compound 0.316 µM, first compound 0.03 µM) was 77.9% and the viability, T/C (second compound 0.316 µM, first compound 0.0949 µM) was 51.8%. It also gave a viability, T/C (second compound 0.316 µM, first compound 0.3 µM) of 33.4%, a viability, T/C (second compound 0.316 µM, first compound 0.949 µM) of 23.1% and a viability, T/C (second compound 0.316 µM, first compound 3 µM) of 12.9%. For the same compound, the viability, T/C (second compound 1 µM, first compound 0.00949 µM) was 88.8%, the viability, T/C (second compound 1 µM, first compound 0.03 µM) was 72% and the viability, T/C (second compound 1 µM, first compound 0.0949 µM) was 51.6%. The viability, T/C (second compound 1 µM, first compound 0.3 µM) was 32.3%, the viability, T/C (second compound 1 µM, first compound 0.949 µM) was 24.4% and the viability, T/C (second compound 1 µM, first compound 3 µM) was 10.6%. It also gave a viability, T/C (second compound 3.16 µM, first compound 0.00949 µM) of 74%, a viability, T/C (second compound 3.16 µM, first compound 0.03 µM) of 69.2% and a viability, T/C (second compound 3.16 µM, first compound 0.0949 µM) of 48.1%. It also gave a viability, T/C (second compound 3.16 µM, first compound 0.3 µM) of 31.9%, a viability, T/C (second compound 3.16 µM, first compound 0.949 µM) of 21.4% and a viability, T/C (second compound 3.16 µM, first compound 3 µM) of 11%. The viability, T/C (second compound 10 µM, first compound 0.00949 µM) was 79.2%, the viability, T/C (second compound 10 µM, first compound 0.03 µM) was 62.8% and the viability, T/C (second compound 10 µM, first compound 0.0949 µM) was 41%. The viability, T/C (second compound 10 µM, first compound 0.3 µM) was 29%, the viability, T/C (second compound 10 µM, first compound 0.949 µM) was 15.2% and the viability, T/C (second compound 10 µM, first compound 3 µM) was 7.35%.
